Nine compounds from PubChem BioAssay (NCI) can be followed below.

Assay in all cases: growth of human tumour cells (NCI), 48 h
Experiment [1] has as its system SK-MEL-28 melanoma.
The subject of experiment [2] is LOX IMVI melanoma.
The test system of experiment [3] is MDA-MB-231 breast.
In experiment [4] the test system is ACHN renal.
The subject of experiment [5] is HCT-15 colon.
Experiment [6] relates to DU-145 prostate.
Experiment [7] deals with UACC-62 melanoma.
Experiment [8] has as its system SK-MEL-5 melanoma.

Structures are written as SMILES.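 Assay format: 96-well plates, 48-hour exposure. GI50 marks 50% less growth. TGI: concentration producing complete growth inhibition.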

As for `O=C1OC(O)[C@@H]2[C@H]1[C@H]1CC[C@@H]2O1` (stereo partly drawn), the GI50 in experiment [1] was above 58.2 µM; in experiment [2], above 100 µM; in experiment [3] it was above 74.3 µM; in experiment [4], above 89.6 µM; in experiment [5] it was above 100 µM; in experiment [6] it was above 87.3 µM. Moreover, the values for the GI50 in experiment [7] and in experiment [8] were above 100 µM and 68.2 µM, respectively. The TGI was above 94 µM in experiment [1]; above 100 µM in experiment [2]; above 100 µM in experiment [3]; above 100 µM in experiment [4]; above 100 µM in experiment [5]; above 100 µM in experiment [6]. The TGI in experiment [7] and in experiment [8] was above 100 µM throughout.
Turning to `Cc1cc(/C=C/c2ccc3cc(N(C)C)ccc3[n+]2C)c(C)n1-c1ccccc1`, the GI50 in experiment [1] is 0.568 µM; in experiment [2], 0.121 µM; in experiment [3], 0.193 µM; in experiment [4] it was 0.596 µM; in experiment [5], 1.31 µM; in experiment [6], 0.175 µM. The figures for the GI50 in experiment [7] and in experiment [8] were 0.277 µM and 0.0835 µM, respectively. For the same compound, the TGI in experiment [1] was found to be 1.53 µM; in experiment [2], 0.884 µM; in experiment [3], 1.09 µM; in experiment [4], 1.74 µM; in experiment [5], 6.3 µM; in experiment [6], 0.846 µM. Moreover, the TGI in experiment [7] came out at 1.27 µM; in experiment [8], 0.226 µM.
In the case of `N=Nc1c(OC(=O)Nc2cccc(Cl)c2)[nH]c2ccccc12`, the TGI in experiment [1] was determined as 28 µM; in experiment [2], 20.8 µM; in experiment [3], 26.7 µM; in experiment [4], 20.3 µM; in experiment [5], 18.9 µM; in experiment [6] it was 20.3 µM. Moreover, the values for the TGI in experiment [7] and in experiment [8] were 21.1 µM and 24 µM, respectively.
In the case of `COc1c(Cl)c(=O)oc2ccc(Cl)cc12`, the TGI in experiment [1], in experiment [2], in experiment [3], in experiment [4], in experiment [5] and in experiment [6] was above 100 µM throughout. Also, the TGI in experiment [7] and in experiment [8] was above 100 µM in each case.
Consider `COc1ncnc(NS(=O)(=O)c2ccc(N=C3C(=O)N(CN4CCN(c5c(F)cc6c(=O)c(C(=O)O)cn(C7CC7)c6c5OC)CC4C)c4ccc(Cl)cc43)cc2)c1OC` (stereo not drawn), for which the GI50 in experiment [1] is 26.1 µM; in experiment [2] it was 6.89 µM; in experiment [3], 6.3 µM; in experiment [4], 7.17 µM; in experiment [5] it was 7.48 µM; in experiment [6], 21 µM. For the same compound, the figures for the GI50 in experiment [7] and in experiment [8] were 16.1 µM and 8.63 µM, respectively. Moreover, the TGI in experiment [1] is above 50 µM; in experiment [2] it was 15.6 µM; in experiment [3], above 50 µM; in experiment [4] it was 20.6 µM; in experiment [5], 23 µM; in experiment [6] it was above 50 µM. Also, the TGI in experiment [7] is above 50 µM; in experiment [8], 16.5 µM.
Take `CN1CCN(CCCn2c(=O)c3sc4ncccc4c3n3nnc(-c4ccccc4)c23)CC1`: the GI50 in experiment [1] was 8.73 µM; in experiment [2], 5.33 µM; in experiment [3] it was 6.88 µM; in experiment [4] it was 8.2 µM; in experiment [5] it was 6.19 µM; in experiment [6], 5.85 µM. Besides, the GI50 is 8.85 µM in experiment [7] and 7.21 µM in experiment [8]. Further, the TGI was determined as 15.8 µM in experiment [1]; 11.5 µM in experiment [2]; 13.6 µM in experiment [3]; 15.1 µM in experiment [4]; 13.2 µM in experiment [5]; 12.2 µM in experiment [6]. Moreover, the TGI in experiment [7] came to 16.1 µM; in experiment [8], 13.8 µM.
On to `Nc1ncnc2n[nH]c(Nc3ccc(F)cc3)c12`, for which the GI50 in experiment [1] was 24.1 µM; in experiment [2] it was 10.1 µM; in experiment [3], 21.5 µM; in experiment [4], 5.46 µM; in experiment [5] it was 8.6 µM; in experiment [6] it was 9.33 µM. For the same compound, the figures for the GI50 in experiment [7] and in experiment [8] were 20.8 µM and 19.6 µM, respectively. The TGI in experiment [1] is 88.4 µM; in experiment [2] it was 34 µM; in experiment [3], 81.2 µM; in experiment [4], above 100 µM; in experiment [5] it was above 100 µM; in experiment [6], 42.1 µM. Moreover, the TGI in experiment [7] and in experiment [8] was above 100 µM in each case.
In the case of `COc1cc2c3c(n(C)c(=O)c2cc1OC)-c1cc2c(cc1/C3=C\CCCN)OCO2`, the GI50 in experiment [1] was 18.8 µM; in experiment [2] it was 1.06 µM; in experiment [3] it was 5.09 µM; in experiment [4], 2.09 µM; in experiment [5] it was 3.18 µM; in experiment [6], 5.57 µM. In addition, the values for the GI50 in experiment [7] and in experiment [8] were 2.13 µM and 2.99 µM, respectively. For the same compound, the TGI in experiment [1] was above 100 µM; in experiment [2], 2.52 µM; in experiment [3], 31.5 µM; in experiment [4], 8.64 µM; in experiment [5], 15.5 µM; in experiment [6] it was 54.1 µM. The TGI in experiment [7] came to 13.7 µM; in experiment [8] it was 13.8 µM.
Regarding `O=C(Nc1ccc(Cl)cc1)c1cccc(NC2=C(Cl)C(=O)N(Cc3ccccc3)C2=O)c1`, the GI50 is 25.7 µM in experiment [1]; 11.1 µM in experiment [2]; 4.44 µM in experiment [3]; 14.4 µM in experiment [4]; 12.2 µM in experiment [5]; 6.39 µM in experiment [6]. Moreover, the GI50 in experiment [7] was 11 µM; in experiment [8] it was 8.15 µM. Moreover, the TGI is above 100 µM in experiment [1]; 23.2 µM in experiment [2]; 17.6 µM in experiment [3]; 27.5 µM in experiment [4]; 26.9 µM in experiment [5]; 19.7 µM in experiment [6]. The figures for the TGI in experiment [7] and in experiment [8] were 22.9 µM and 20.9 µM, respectively.
